{"source": "patent US4119730A", "about": "“Treating muscle spasms” (Chimicasa GmbH, priority 1976, dated 1978)", "key": {"bladder": {"tested_on": "bladder", "assay": "cystometric measuring of the damping of the increase of the bladder tonus caused by a spasmogenic agent (carbachol)", "assay_type": "in vivo, human", "description": "The effectiveness test is performed by cystometric measuring of the damping of the increase of the bladder tonus caused by the antispasmodic agent after intravesical administration of a spasmogenic agent as follows:\nThe bladder capacity (BC) of several human subjects with indwelling permanent catheters is measured by filling the bladders with water warmed to 37° C. The maximum micturition pressure (MM) in the case of the filled bladder is measured. The bladder is then emptied and filled again with warm, clean water to half the capacity measured previously (1/2 BC) and the pressure P1 in the case of the half-filled bladder is measured. The bladder is again emptied and filled again to half its capacity with a solution 1. […] The pressure P2 for half its capacity is measured. […] 30 minutes thereafter the emptied bladder is filled with water, warmed to 37° C. to half its capacity and the pressure P3 is measured. The bladder is subsequently emptied and filled to half its capacity with the solution 1 and the pressure P4 is measured. Fifteen minutes later, the bladder is emptied again and filled to half its capacity with water, warmed to 37° C. and the pressure P5 is measured. Directly thereafter, the bladder is emptied and filled to half its capacity with solution 1 and the pressure P6 is measured. […]"}, "[1]": {"tested_on": "isolated guinea pig intestine", "assay": "inhibition of histamine-induced contraction of isolated guinea pig intestine", "conditions": "Cavia porcellus, 2 min, read-out: ED50 (concentration of agent per liter of bath liquid which inhibits the contraction of the intestine by 50%)", "description": "The antispasmodic effect of the compounds (I) could not be expected from a study of their structure alone. Their effectiveness has been measured in a pharmacological standard test as follows:\nSeveral 3 cm-long pieces of an isolated guinea pig intestine were stretched under a load of 0.5 g in separate baths. In all baths, the bath liquid was Tyrode's solution, warmed to 32° C. A first contraction of the pieces of intestine was produced in each case by adding 0.5 mg (milligram) of histamine chloride per liter of bath liquid. he reduction in length caused by the first contraction was measured 2 min (minutes) after adding the histamine chloride.\nThe bath liquids were then renewed and, after relaxation of the first contraction, the agent under test, dissolved in propylene glycol, was added to the bath liquids and 2 min later 0.5 mg. of histamine chloride per liter of bath liquid was again added. A second contraction was thereby produced and the reduction in length caused by this was measured 2 min after the addition of the histamine chloride. […] The concentrations (ED50) of agent per liter of bath liquid, which inhibit the contraction of the intestine by 50% were determined (ED50 = effective dose to inhibit for 50%)."}, "[2]": {"conditions": "cited from earlier work"}, "[3]": {"conditions": "0.5 mg histamine chloride per liter, Tyrode's solution, 32° C."}}, "note": "Like-named read-outs stand apart in the source and are kept apart here.", "data": [{"smiles": "C=CCc1ccc(OC)c(OC)c1", "note": "[1-Allyl-3,4-dimethoxybenzene]", "values": [{"measurement": "effectiveness on humans", "setting": "bladder; rectal", "result": "effectiveness"}, {"measurement": "IC50", "setting": "[1]", "result": 11.8, "unit": "µg/mL"}]}, {"smiles": "CC=Cc1ccc(OC(C)=O)c(OC)c1", "note": "[2-Methoxy-4-propenylphenyl acetate]", "values": [{"measurement": "IC50", "setting": "[1]", "result": 52, "unit": "µg/mL"}]}, {"smiles": "CC=Cc1ccc(OC)c(OC)c1", "note": "[3,4-Dimethoxy-propenylbenzol]", "values": [{"measurement": "IC50", "setting": "[1]; [3]", "result": 27, "unit": "µg/mL"}]}, {"smiles": "C=CCc1ccc(OC(C)=O)c(OC)c1", "note": "[4-Allyl-2-methoxyphenyl acetate]", "values": [{"measurement": "effectiveness on humans", "setting": "bladder; rectal or oral", "result": "effectiveness"}, {"measurement": "IC50", "setting": "[1]; [3]", "result": 25, "unit": "µg/mL"}]}, {"smiles": "C=CCc1ccc(OC(=O)c2ccccc2)c(OC)c1", "note": "[4-Allyl-2-methoxyphenyl benzoate]", "values": [{"measurement": "IC50", "setting": "[1]; [3]", "result": 160, "unit": "µg/mL"}]}, {"smiles": "C=CCc1ccc(OC(=O)CCC)c(OC)c1", "note": "[4-Allyl-2-methoxyphenyl butanoate]", "values": [{"measurement": "IC50", "setting": "[1]; [3]", "result": 14.5, "unit": "µg/mL"}]}, {"smiles": "C=CCc1ccc(OC(=O)CCCC)c(OC)c1", "note": "[4-Allyl-2-methoxyphenyl valerate]", "values": [{"measurement": "IC50", "setting": "[1]; [3]", "result": 44.6, "unit": "µg/mL"}]}, {"smiles": "COc1ccc(Cc2nccc3cc(OC)c(OC)cc23)cc1OC", "note": "[Papaverine]", "values": [{"measurement": "non-specific actions", "setting": "[2]; in vivo", "result": "observed"}, {"measurement": "activity in animal experiments", "setting": "[2]; prior art", "result": "very active in animal experiments"}, {"measurement": "activity when used on humans", "setting": "[2]; prior art", "result": "its activity is insufficient"}, {"measurement": "dosage required in severe spasms relative to lethal dose", "setting": "[2]; prior art, lethal dose from animal experiments", "result": "very high dosages, near the lethal dose"}]}, {"smiles": "CN1[C@@H]2CC[C@H]1C[C@@H](OC(=O)C(CO)c1ccccc1)C2", "note": "(stereo partly drawn) [atropine]", "values": [{"measurement": "drug dependence", "setting": "[2]; especially with long term treatment, prior art", "result": "drug dependence can occur"}, {"measurement": "side effects associated with use", "setting": "[2]; known antispasmodic, prior art", "result": "inducement of sleepiness, mental confusion and a state of inattentiveness"}]}]}
